Assay results reported in ChEMBL document CHEMBL1125334, “New nonpeptide angiotensin II receptor antagonists. 2. Synthesis, biological properties, and structure-activity relationships of 2-alkyl-4-(biphenylylmethoxy)quinoline derivatives” (J Med Chem, 1992).
pIC50: −log10 of the molar value.

Key:
[1] = molecular target: T1, Type-1 angiotensin II receptor (Cavia porcellus, UniProt Q9WV26); assay: In vitro inhibition of the specific binding of [125I]angiotensin II to a guinea pig adrenal membrane preparation
T1 sequence (Q9WV26 whole entry): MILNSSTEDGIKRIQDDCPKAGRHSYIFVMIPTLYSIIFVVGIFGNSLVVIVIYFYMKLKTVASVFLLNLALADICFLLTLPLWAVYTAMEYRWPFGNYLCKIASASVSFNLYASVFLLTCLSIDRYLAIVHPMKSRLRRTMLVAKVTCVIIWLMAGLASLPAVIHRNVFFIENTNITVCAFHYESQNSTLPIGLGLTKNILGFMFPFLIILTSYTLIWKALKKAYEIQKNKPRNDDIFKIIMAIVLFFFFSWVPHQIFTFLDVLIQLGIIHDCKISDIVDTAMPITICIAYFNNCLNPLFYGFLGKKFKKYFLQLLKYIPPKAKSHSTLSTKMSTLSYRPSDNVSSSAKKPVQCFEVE

[2] = test system: Rattus norvegicus; assay: (§1) Intravenous administration to conscious rats for inhibition of pressor response induced by infusion of AII (angiotensin-II).; format: functional
[3] = molecular target: Angiotensin II receptor (Rattus norvegicus) (UniProt P29089+P25095+P35351); assay: as §1; format: functional, organism-based

| Compound | pIC50 [1] | ED50 [2] [mg/kg] | ED50 [3] [mg/kg] |
| --- | --- | --- | --- |
| CCc1cc(OCc2ccc(-c3ccccc3-c3nnn[nH]3)cc2)c2ccccc2n1 | 7.51 | 1 | – |
| CCc1cc(OCc2ccc(-c3ccccc3-c3nn[nH]n3)cc2)c2cc(OCCF)ccc2n1 | 7.15 | – | 0.34 |
| CCc1cc(OCc2ccc(-c3ccccc3-c3nn[nH]n3)cc2)c2ccc(C)cc2n1 | 6.85 | – | > 5 |
| CCCc1cc(OCc2ccc(-c3ccccc3C(=O)O)cc2)c2ccccc2n1 | 6.22 | – | – |
| CCc1cc(OCc2ccc(-c3ccccc3-c3nnn[nH]3)cc2)c2c(C#N)cccc2n1 | 7.22 | – | – |
| CCc1cc(OCc2ccc(-c3ccccc3-c3nnn[nH]3)cc2)c2cc(OC(C)C)ccc2n1 | 7.59 | – | – |
| CCc1cc(OCc2ccc(-c3ccccc3-c3nn[nH]n3)cc2)c2cccc(C(F)(F)F)c2n1 | – | – | > 5 |
| CCc1cc(OCc2ccc(-c3ccccc3-c3nn[nH]n3)cc2)c2c(Cl)cccc2n1 | – | – | > 5 |
| Cc1nc2ccccc2c(OCc2ccc(-c3ccccc3-c3nnn[nH]3)cc2)c1C | 5.34 | – | – |
| Cc1cc(CCc2ccc(-c3ccccc3-c3nnn[nH]3)cc2)c2ccccc2n1 | 6.57 | – | – |
| CCc1cc(OCc2ccc(-c3ccccc3-c3nn[nH]n3)cc2)c2cc(OC(C)C)ccc2n1 | – | – | 0.18 |
| CCc1cc(OCc2ccc(-c3ccccc3-c3nn[nH]n3)cc2)c2ccc(Cl)cc2n1 | 6.80 | – | > 5 |
| CCc1cc(OCc2ccc(-c3ccccc3-c3nn[nH]n3)cc2)c2cc(C#N)ccc2n1 | – | – | > 5 |
| Cc1cc(OCc2ccc(-c3ccccc3-c3nn[nH]n3)cc2)c2cccc(C)c2n1 | 6.51 | – | > 5 |
| Cc1cc(SCc2ccc(-c3ccccc3-c3nn[nH]n3)cc2)c2ccccc2n1 | 6.43 | – | – |
| CCc1cc(OCc2ccc(-c3ccccc3-c3nnn[nH]3)cc2)c2c(Cl)cccc2n1 | 6.92 | – | – |
| CCc1cc(OCc2ccc(-c3ccccc3-c3nnn[nH]3)cc2)c2cccc(Cl)c2n1 | 6.85 | – | – |
| CCc1cc(OCc2ccc(-c3ccccc3-c3nnn[nH]3)cc2)c2cc(C(F)(F)F)ccc2n1 | 6.07 | – | – |

| Compound | pIC50 [1] | ED50 [2] [mg/kg] | ED50 [3] [mg/kg] |
| --- | --- | --- | --- |
| CCCCc1nc(Cl)c(CO)n1Cc1ccc(-c2ccccc2-c2nnn[nH]2)cc1 | – | – | 0.65 |
| CCCCc1nc(Cl)c(CO)n1Cc1ccc(-c2ccccc2-c2nn[nH]n2)cc1 [LOSARTAN POTASSIUM] | 7.74 | – | – |
| CCc1cc(OCc2ccc(-c3ccccc3-c3nn[nH]n3)cc2)c2ccc(OC)cc2n1 | – | – | > 5 |
| c1ccc(-c2nnn[nH]2)c(-c2ccc(COc3ccnc4ccccc34)cc2)c1 | 5.20 | – | – |
| CCc1cc(OCc2ccc(-c3ccccc3-c3nnn[nH]3)cc2)c2cc(C#N)ccc2n1 | 6.44 | – | – |
| CCc1cc(OCc2ccc(-c3ccccc3-c3nn[nH]n3)cc2)c2cc(OCC(F)(F)F)ccc2n1 | 7.59 | – | 0.71 |
| CCc1cc(OCc2ccc(-c3ccccc3-c3nn[nH]n3)cc2)c2cc(C(=O)OC)ccc2n1 | 7.18 | – | 2.1 |
| CCc1cc(OCc2ccc(-c3ccccc3-c3nn[nH]n3)cc2)c2cccc(OC)c2n1 | 6.02 | – | > 5 |
| CCc1cc(OCc2ccc(-c3ccccc3-c3nnn[nH]3)cc2)c2ccc(OC)cc2n1 | 6.66 | – | – |
| CCc1cc(OCc2ccc(-c3ccccc3-c3nn[nH]n3)cc2)c2cc(C(F)(F)F)ccc2n1 | – | – | > 5 |
| CCc1cc(OCc2ccc(-c3ccccc3-c3nn[nH]n3)cc2)c2cc(OC)ccc2n1 | 7.66 | – | 0.32 |
| Cc1cc(OCc2ccc(-c3ccccc3C(=O)O)cc2)c2ccccc2n1 | 6.74 | – | – |
| CCc1cc(OCc2ccc(-c3ccccc3-c3nn[nH]n3)cc2)c2ccc(C#N)cc2n1 | 6.34 | – | > 5 |
| CCCCc1nc(Cl)c(CO)n1Cc1ccc(-c2ccccc2C(=O)O)cc1 | 6.37 | – | – |
| Cc1ccc2nc(C)cc(OCc3ccc(-c4ccccc4-c4nn[nH]n4)cc3)c2c1 | 6.33 | – | > 5 |
| CCc1cc(OCc2ccc(-c3ccccc3-c3nnn[nH]3)cc2)c2c(C)cccc2n1 | 7.89 | – | – |
| Cc1cc(OCc2ccc(-c3ccccc3-c3nn[nH]n3)cc2)c2ccccc2n1 | – | – | 0.73 |
